Among the data in patent US7851474B2, “Dipiperazinyl ketones and related analogues” (Neurogen Corporation, priority 2005, dated 2010) are Ki values, retold here.

pKi: −log10 of the molar value. Where two headings read alike, the source gives them in different places.

This experiment deals with T1, chimeric human H3 receptor (Homo sapiens, UniProt Q9Y5N1, E19D).
T1 construct: made in house; host or cells: Sf9 insect cells (baculovirus infection); P2 membrane preparation
The experiment is described as follows: Chimeric human H3 receptor GTP binding assay (agonist-stimulated GTP-gamma35S binding, Example 7). It counts as biochemical. The method, boiled down: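 IC50 values come from non-linear regression of dose-response curves of filter-bound GTP-gamma^35S, counted by scintillation. Membranes were from infected Sf9 cells carrying receptor plus G-protein subunits, 35 μg/tube, with 10 μM GDP present.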

Setting [1] is: Table II, "*" in Ki, assay of Example 7, read-out: Ki.
Where [2] appears, read: "*" in Ki of Table II, assay of Example 7, read-out: Ki.
The mark [3] stands for this setting: assay of Example 7, "*" in Ki of Table II, read-out: Ki.
The mark [4] stands for this setting: Table II, assay of Example 7, "*" in Ki, read-out: Ki.
Setting [5] is: Table II "Ki", symbol "*": Ki in the assay of Example 7, read-out: Ki.

T1 sequence (Q9Y5N1 with tags, fused parts or gaps E19D): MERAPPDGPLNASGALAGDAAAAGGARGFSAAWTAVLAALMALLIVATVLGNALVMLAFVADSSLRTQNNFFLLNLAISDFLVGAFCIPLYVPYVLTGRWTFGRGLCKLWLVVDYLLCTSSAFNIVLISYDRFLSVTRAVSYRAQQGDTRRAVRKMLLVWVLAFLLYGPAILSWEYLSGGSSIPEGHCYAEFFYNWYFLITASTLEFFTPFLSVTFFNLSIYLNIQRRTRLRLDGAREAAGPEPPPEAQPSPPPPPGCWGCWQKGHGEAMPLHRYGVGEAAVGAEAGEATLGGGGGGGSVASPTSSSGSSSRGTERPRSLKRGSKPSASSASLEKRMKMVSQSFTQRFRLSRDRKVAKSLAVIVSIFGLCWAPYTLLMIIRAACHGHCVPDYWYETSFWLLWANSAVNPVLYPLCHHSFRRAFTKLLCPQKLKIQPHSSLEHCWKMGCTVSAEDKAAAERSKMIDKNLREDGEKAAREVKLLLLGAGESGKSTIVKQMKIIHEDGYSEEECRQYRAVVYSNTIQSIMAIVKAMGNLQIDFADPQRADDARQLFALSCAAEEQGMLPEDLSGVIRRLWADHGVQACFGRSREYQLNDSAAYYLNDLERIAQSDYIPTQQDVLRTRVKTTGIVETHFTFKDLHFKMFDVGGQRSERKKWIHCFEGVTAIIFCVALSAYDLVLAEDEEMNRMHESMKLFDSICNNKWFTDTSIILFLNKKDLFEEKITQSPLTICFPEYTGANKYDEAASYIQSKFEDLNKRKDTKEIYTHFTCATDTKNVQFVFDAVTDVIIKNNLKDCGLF

For the compound `COc1cccc(-c2ccc(N3CCN(CC(=O)N4CCN(C5CCC5)CC4)CC3)cc2)c1` [Compound 758, 1-cyclobutyl-4-{[4-(3′-methoxybiphenyl-4-yl)piperazin-1-yl]acetyl}piperazine], the pKi under setting [1] is above 6.00.
In the case of `COc1cc(-c2ccc(N3CCN(CC(=O)N4CCN(C5CCC5)CC4)CC3)cc2)cc(OC)c1OC` [Compound 725, 1-cyclobutyl-4-{[4-(3′,4′,5′-trimethoxybiphenyl-4-yl)piperazin-1-yl]acetyl}piperazine], the pKi under setting [1] was above 6.00.
Turning to `O=C(CN1CCN(c2ccc(F)c(C(F)(F)F)c2)CC1)N1CCN(C2CCCC2)CC1` [Compound 830, 1-cyclopentyl-4-({4-[4-fluoro-3-(trifluoromethyl)phenyl]piperazin-1-yl}acetyl)piperazine], the pKi is above 6.00.
With `O=C(CN1CCC2(CC1)CN(Cc1ccccc1)c1cccnc12)N1CCN(C2CCC2)CC1` [Compound 490, 1′-benzyl-1-[2-(4-cyclobutylpiperazin-1-yl)-2-oxoethyl]-1′,2′-dihydrospiro[piperidine-4,3′-pyrrolo[3,2-b]pyridine]], the pKi under setting [2] was above 6.00.
`COc1ccc(C(=O)NC2CCN(CC(=O)N3CCN(C4CCC4)CC3)C2)cc1` (centres unmarked) [Compound 1237, N-{1-[2-(4-cyclobutylpiperazin-1-yl)-2-oxoethyl]pyrrolidin-3-yl}-4-methoxybenzamide]: the negative logarithm of the Ki (pKi) under setting [3] is above 6.00.
Take `COc1ccccc1-c1ccc(N2CCN(CC(=O)N3CCN(C4CCC4)CC3)CC2)nn1` [Compound 1039, 3-{4-[2-(4-cyclobutylpiperazin-1-yl)-2-oxoethyl]piperazin-1-yl}-6-(2-methoxyphenyl) pyridazine]: the pKi under setting [4] was above 6.00.
With `O=C(CN1CCN(c2cccc(C(=O)N3CCCC3)c2)CC1)N1CCN(C2CCC2)CC1` [Compound 586, 1-cyclobutyl-4-({4-[3-(pyrrolidin-1-ylcarbonyl)phenyl]piperazin-1-yl}acetyl)piperazine], under setting [1], the pKi is above 6.00.
Consider `O=C(CN1CCN(c2cnc(-c3ccc(C(F)(F)F)cc3)cn2)CC1)N1CCN(C2CCC2)CC1` [Compound 975, 2-{4-[2-(4-cyclobutylpiperazin-1-yl)-2-oxoethyl]piperazin-1-yl}-5-[4-(trifluoromethyl)phenyl] pyrazine], for which the pKi under setting [4] was above 6.00.
Still for that read-out and setting: the figure for `O=C(CN1CCN(c2cnc(-c3ccc(F)cc3F)cn2)CC1)N1CCN(C2CCC2)CC1` [Compound 961, 2-{4-[2-(4-cyclobutylpiperazin-1-yl)-2-oxoethyl]piperazin-1-yl}-5-(2,4-difluorophenyl)pyrazine] is above 6.00.
With `CC(Oc1cccc(Cl)c1)C(=O)N1CCN(CC(=O)N2CCN(C3CCC3)CC2)CC1` (centres unmarked) [Compound 418, 1-[2-(3-chlorophenoxy)propanoyl]-4-[2-(4-cyclobutylpiperazin-1-yl)-2-oxoethyl]piperazine], the pKi (assay of Example 7, symbol * in column headed Ki of Table II, read-out: Ki) is above 6.00.
`COc1ccc(Cl)cc1-c1ccc(N2CCN(CC(=O)N3CCN(C4CCC4)CC3)CC2)nn1` [Compound 995, 3-(5-chloro-2-methoxyphenyl)-6-{4-[2-(4-cyclobutylpiperazin-1-yl)-2-oxoethyl]piperazin-1-yl}pyridazine]: the pKi under setting [4] is above 6.00.
Take `Cc1cc(C)c(-c2cnc(N3CCN(CC(=O)N4CCN(C5CCC5)CC4)CC3)cn2)c(C)c1` [Compound 974, 2-{4-[2-(4-cyclobutylpiperazin-1-yl)-2-oxoethyl]piperazin-1-yl}-5-mesitylpyrazine]: under setting [4], the pKi is above 6.00.
Consider `CC(C)c1ccccc1-c1cnc(N2CCN(CC(=O)N3CCN(C4CCC4)CC3)CC2)cn1` [Compound 971, 2-{4-[2-(4-cyclobutylpiperazin-1-yl)-2-oxoethyl]piperazin-1-yl}-5-(2-isopropylphenyl)pyrazine], for which the pKi under setting [4] was above 6.00.
Still for that read-out and setting: the figure for `COc1ccc(N2CCN(CC(=O)N3CCN(C(C)C)CC3)CC2C)cc1` (centres unmarked) [Compound 1111, 4-[2-(4-isopropylpiperazin-1-yl)-2-oxoethyl]-1-(4-methoxyphenyl)-2-methylpiperazine] is above 6.00.
Consider `CC(=O)c1ccc(N2CCN(CC(=O)N3CCN(C4CCC4)CC3)CC2)c(C(F)(F)F)c1` [Compound 462, 1-[4-{4-[2-(4-cyclobutylpiperazin-1-yl)-2-oxoethyl]piperazin-1-yl}-3-(trifluoromethyl)phenyl] ethanone], for which, under setting [2], the pKi was above 6.00.
For the compound `CCC(C)N1CCN(C(=O)CN2CCN(c3ccc(C(F)(F)F)cc3)CC2)CC1` (centres unmarked) [Compound 854, 1-sec-butyl-4-({4-[4-(trifluoromethyl)phenyl]piperazin-1-yl}acetyl)piperazine], the pKi under setting [5] was above 6.00.
With `CCN(C(=O)c1cccc(N2CCN(CC(=O)N3CCN(C4CCC4)CC3)CC2)c1)C(C)C` [Compound 1066, 3-{4-[2-(4-cyclobutylpiperazin-1-yl)-2-oxoethyl]piperazin-1-yl}-N-ethyl-N-isopropylbenzamide], the pKi under setting [4] was above 6.00.
Consider `O=C(CN1CCN(c2ccc(C(=O)N3CCC(F)(F)CC3)cc2)CC1)N1CCN(C2CCC2)CC1` [Compound 647, 1-cyclobutyl-4-[(4-{4-[(4,4-difluoropiperidin-1-yl)carbonyl]phenyl}piperazin-1-yl)acetyl]piperazine], for which, under setting [1], the pKi is above 6.00.
For `CN(C)c1cccc(-c2cnc(N3CCN(CC(=O)N4CCN(C5CCC5)CC4)CC3)cn2)c1` [Compound 993, 3-(5-{4-[2-(4-cyclobutylpiperazin-1-yl)-2-oxoethyl]piperazin-1-yl}pyrazin-2-yl)-N,N-dimethylaniline], the pKi under setting [4] is above 6.00.
As to `O=C(CN1CCN(c2ccc(-c3cncnc3)cc2)CC1)N1CCN(C2CCC2)CC1` [Compound 1154, 5-(4-{4-[2-(4-cyclobutylpiperazin-1-yl)-2-oxoethyl]piperazin-1-yl}phenyl)pyrimidine], under setting [3], the pKi is above 6.00.
On to `O=C(CN1CCN(c2cnc(-c3cccc(F)c3F)cn2)CC1)N1CCN(C2CCC2)CC1` [Compound 966, 2-{4-[2-(4-cyclobutylpiperazin-1-yl)-2-oxoethyl]piperazin-1-yl}-5-(2,3-difluorophenyl)pyrazine], for which the pKi under setting [4] was above 6.00.
Turning to `O=C(CN1CCN(c2ccc(C(=O)N3CCCC3)cc2)CC1)N1CCN(C2CCC2)CC1` [Compound 603, 1-cyclobutyl-4-({4-[4-(pyrrolidin-1-ylcarbonyl)phenyl]piperazin-1-yl}acetyl)piperazine], the pKi under setting [1] was above 6.00.
Consider `CC(=O)c1cccc(-c2ccc(N3CCN(CC(=O)N4CCN(C5CCC5)CC4)CC3)nn2)c1` [Compound 455, 1-[3-(6-{4-[2-(4-cyclobutylpiperazin-1-yl)-2-oxoethyl]piperazin-1-yl}pyridazin-3-yl)phenyl]ethanone], for which the pKi under setting [2] was above 6.00.
As to `O=C(CN1CCN(c2cnc(-c3ccc4c(c3)OCO4)cn2)CC1)N1CCN(C2CCC2)CC1` [Compound 896, 2-(1,3-benzodioxol-5-yl)-5-{4-[2-(4-cyclobutylpiperazin-1-yl)-2-oxoethyl]piperazin-1-yl}pyrazine], the pKi under setting [5] was above 6.00.
On to `O=C(CN1CCC2(CC1)C(=O)NCN2c1ccccc1)N1CCN(C2CCC2)CC1` [Compound 1190], for which the pKi under setting [3] was above 6.00.
The same measure, in the same setting: next, `O=C(CC1CCCCC1)NC1CCN(CC(=O)N2CCN(C3CCC3)CC2)CC1` [Compound 1209, N-{1-[2-(4-cyclobutylpiperazin-1-yl)-2-oxoethyl]piperidin-4-yl}-2-cyclohexylacetamide]: above 6.00.
